Data set [1] has as its system panel of recombinant HIV 1 subtype B RTs. Briefly: RT binding inhibition (BIC) assay, whole RT panel. The note with it: all conditions studied. As for the experimental part:
(iii) Protocol for RT binding inhibition (BIC) assay: The study was performed in a modified DNA polymerase assay. The inhibitors were serially diluted in five steps, enzyme dilution was added and the enzyme/inhibitor mixtures were incubated for 30 minutes at 33° C. Aliquots of the enzyme/inhibitor mixture were transferred to each well of a microtiter plate containing either immobilised primer, or primer/template. The enzyme was allowed to bind to the immobilised polymer for 90 min at 33° C. The amount of RT used was standardised to an activity corresponding to 40-60 pg (3.3-5.0×10^−16 mol) reference HIV-1 RT per well. The plates were then washed to remove unbound enzyme whereupon the amount of bound enzyme was determined by addition of the appropriate reaction solution for polymerisation (i e a reaction solution devoid of primer for studies of primer binding and a reaction solution devoid of both primer and template for studies of binding to primed template). The polymerase reaction was allowed to proceed for 3 hours at 33° C., whereupon the reaction was terminated by a wash of the plate.
The capacity of the indicated substances to inhibit the binding to primer or to primed DNA template of a panel of recombinant HIV 1 subtype B RTs was studied according to “Protocol for RT binding inhibition (BIC) assay” (protocol (iii) above).

For data set [2], the system named is Mut1 (RNase H inactive mutant of HIV-1 RT). Briefly: Gel mobility shifts in native polyacrylamide gel electrophoresis (PAGE). It counts as binding. The source says:
(§1) In the following experiment, the terms “34-mer” and “35-mer” refer to SEQ ID NO:3 (produced in example A1 above) and SEQ ID NO:4 (produced in example A2 above), respectively. […] Natural RT molecules have an RNase H activity which normally cleaves RNA molecules. […] This mutant is produced according to the method given in Schatz, O., Cromme, F. V., Grüninger-Leitch, F. and Le Grice, S. F. J., Febs Letter. Vol.257, No.2 p.311-314. This RT-mutant is further on referred to as Mut1. The following experiments are carried out:
2. Gel mobility shifts in polyacrylamide gel electrophoresis (PAGE) experiments.
a) Native 20% PAGE gel is run at 4-5° C. Samples are incubated at 4° C. in 50 mM hepes buffer and 5 mM magnesium chloride and varying salt concentrations as indicated below.
Samples are incubated for 90 min at 4° C. prior to a further 10 min incubation at 4° C. with ammonium sulphate and/or KCl. Samples applied to lanes 4 and 5 have twice the amount of 34-mer used for the other samples.
b) Native 20% PAGE gel run at 4-5° C. Samples are incubated at 4° C. in 50 mM hepes buffer and 5 mM magnesium chloride, with varying concentrations of ammonium sulphate.
Native 20% PAGE gel is run at 4-5° C. Samples are incubated at 4° C. in 50 mM hepes buffer, 15 mM manganese sulphate, 1 mM EDTA and 0.25 mM EGTA.
Samples are incubated 10 min at room temperature prior to a 60 min incubation at 4° C. One μl of sample solution is applied per lane. Electrophoresis is conducted with up to 400 volts while cooling to approximately 4° C. After 0.209 kWh the gel is silver stained.

For data set [3] the test system is unchanged. Briefly: Test of binding by gel filtration on a SMART system. The note with it: starting amounts Mut1 210 pmol, oligonucleotide 630 pmol; Mut1 only 0.50 / 0.63.
Description: as §1
1. Test of binding by means of separation of the complex Mut1−34-mer (from Example A1) from excess 34-mer using gel filtration on a SMART system.
1. Mut1 is incubated with excess 34-mer for about 90 min at 4° C., buffer Tris-HCl, pH=8.0, containing 5 mM MgCl2. The mixture is then applied to a gel filtration column of a SMART™-type system, which allows simultaneous registration at two different wavelengths.
Starting amounts: Mut=210 pmol; 34-mer=630 pmol. The left peak is the complex Mut1−34-mer. The absorption at 260 nm (the upper curve) is now higher than the absorption at 280 nm (the lower curve): A260/A280=1.13. The right peak is the excess 34-mer, which has the characteristic absorption ratio for nucleic acids: A260/A280=2.01. […]
Background: In gel filtration, larger molecules generally elute earlier.

Results on two molecules are retold here after patent publication US20040053872A1, “New sequences” (priority 2000, published 2004).

In the case of `Cc1ccnc2c1NC(=O)c1cccnc1N2C1CC1` [Nevirapine], the “Capacity to prevent RT binding to primer or primed template” value in data set [1] is given as “unable to prevent RT binding”.

In the case of “34-mer: phosphorothioate RNA 34-mer corresponding to bases 10-43 in tRNALys3 with unmodified A, G, C and U nucleotides (example A1)”, in data set [2] (native 20% PAGE at 4-5° C.), the “Gel mobility of Mut1 in complex with oligonucleotide” value is reported as “migrates faster than Mut1 alone”. Also, in data set [2] (native 20% PAGE, ammonium sulphate up to […]), the “Complex with Mut1 at high salt concentrations” value is given as “remains in complex with Mut1”. The “A260/A280 of the complex peak Mut1-oligonucleotide” value in data set [3] is reported as 1.13.
